Common to all, as to assay type: biochemical
For assay [1], the target named is AKT1 (Homo sapiens, UniProt P31749). Nature of the assay: In vitro enzyme activity test (HTRF kinEASE TK), AKT1. The conditions noted are these: ATP 2 μM, enzyme 0.6 ng/well, reaction 50 min. How it is done:
(§1) Experimental Procedure 2.1 Preparation of Reagents
(§2) 1 mL 1× Kinase Reaction Buffer of Kinase AKT1, AKT2 and AKT3 contain 200 μL 5× Kinase Reaction Buffer, 5 μL 1 M MgCl2, 1 μL 1 M DTT and 794 μL ultrapure water.
(§3) In addition to the control wells, 4 μL of the diluted compound working solutions were added to all reaction wells.
(§4) b) 2 μL of the previously prepared TK-biotin substrate solution was added to all reaction wells.
(§5) c) 2 μL of the previously prepared enzyme solution was added to all reaction wells, except the negative wells. The volume of the negative well was filled with 2 μL of enzyme corresponding to 1× kinase reaction buffer. The plate was sealed with sealing film. After mixing, the plate was incubated at room temperature for 10 min to allow the compound and enzyme to fully combined.
(§6) d) 2 μL of ATP solution was added to all reaction wells to start the kinase reaction.
(§7) e) The test solution was prepared 5 min before the end of the kinase reaction.
(§8) f) After the kinase reaction was completed, 5 μL of diluted streptavidin-XL665 were added to all reaction wells, and immediately the diluted europium-labeled tyrosine kinase substrate antibody detection solution was added after mixing.
(§9) g) The plate was sealed and mixed well. […] The inhibition rate of each well was calculated through the fully active wells and the background signal wells, taking the average value in case of multiple wells. Meanwhile, the professional drawing analysis software PRISM 6.0 was used to fit the half maximal inhibitory concentration (IC50) of each test compound.

The target in assay [2] is T1, AKT2 (Homo sapiens, UniProt P31751).
T1 construct: purchased Carna 01-102
The assay is described as follows: In vitro enzyme activity test (HTRF kinEASE TK), AKT2. The conditions noted are these: ATP 20 μM, enzyme 0.1 ng/well, reaction 50 min. How it is done:
as §1, §2, §3, §4, §5, §6, §7, §8, §9
On the technique in general: Time-resolved FRET reads energy transfer from a long-lived donor to a nearby acceptor.

Assay [3] deals with T2, AKT3 (Homo sapiens, UniProt Q9Y243).
T2 construct: purchased Invitrogen PV3185
Nature of the assay: In vitro enzyme activity test (HTRF kinEASE TK), AKT3. As to conditions: enzyme 0.3 ng/well, reaction 50 min. How it is done:
as §1, §2, §3, §4, §5, §6, §7, §8, §9

Broadly, the IC50 is the concentration needed to halve the response being measured. A higher IC50 goes with weaker potency in that assay.

Where a name gives a salt, the structure may show the parent alone.

Sequence of AKT1 (P31749 whole entry): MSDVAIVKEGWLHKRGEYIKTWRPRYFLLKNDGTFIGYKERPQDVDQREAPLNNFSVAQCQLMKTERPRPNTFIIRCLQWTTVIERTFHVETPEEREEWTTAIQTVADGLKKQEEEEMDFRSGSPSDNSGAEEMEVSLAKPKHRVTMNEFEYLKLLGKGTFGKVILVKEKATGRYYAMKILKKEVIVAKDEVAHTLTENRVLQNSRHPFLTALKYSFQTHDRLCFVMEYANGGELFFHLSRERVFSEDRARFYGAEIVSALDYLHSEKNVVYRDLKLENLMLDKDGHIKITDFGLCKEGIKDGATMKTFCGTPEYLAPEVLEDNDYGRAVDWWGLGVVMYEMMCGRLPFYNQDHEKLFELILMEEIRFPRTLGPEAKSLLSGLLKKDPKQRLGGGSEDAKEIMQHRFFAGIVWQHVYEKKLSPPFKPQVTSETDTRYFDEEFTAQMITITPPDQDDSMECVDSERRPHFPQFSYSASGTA
T1 sequence (P31751 whole entry): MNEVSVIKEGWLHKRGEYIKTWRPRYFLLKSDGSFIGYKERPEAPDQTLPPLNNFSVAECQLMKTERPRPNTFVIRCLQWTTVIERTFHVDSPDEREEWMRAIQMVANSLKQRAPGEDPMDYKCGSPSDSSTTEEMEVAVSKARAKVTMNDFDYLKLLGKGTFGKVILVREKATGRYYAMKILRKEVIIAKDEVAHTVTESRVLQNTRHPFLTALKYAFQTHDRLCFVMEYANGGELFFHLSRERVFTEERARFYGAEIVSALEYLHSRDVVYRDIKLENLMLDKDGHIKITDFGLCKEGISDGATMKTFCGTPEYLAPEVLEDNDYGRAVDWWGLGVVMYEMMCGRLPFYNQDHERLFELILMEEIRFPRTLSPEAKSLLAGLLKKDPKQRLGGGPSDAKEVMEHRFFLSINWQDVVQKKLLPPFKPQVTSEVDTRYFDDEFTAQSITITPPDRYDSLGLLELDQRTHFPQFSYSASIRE
T2 sequence (Q9Y243 whole entry): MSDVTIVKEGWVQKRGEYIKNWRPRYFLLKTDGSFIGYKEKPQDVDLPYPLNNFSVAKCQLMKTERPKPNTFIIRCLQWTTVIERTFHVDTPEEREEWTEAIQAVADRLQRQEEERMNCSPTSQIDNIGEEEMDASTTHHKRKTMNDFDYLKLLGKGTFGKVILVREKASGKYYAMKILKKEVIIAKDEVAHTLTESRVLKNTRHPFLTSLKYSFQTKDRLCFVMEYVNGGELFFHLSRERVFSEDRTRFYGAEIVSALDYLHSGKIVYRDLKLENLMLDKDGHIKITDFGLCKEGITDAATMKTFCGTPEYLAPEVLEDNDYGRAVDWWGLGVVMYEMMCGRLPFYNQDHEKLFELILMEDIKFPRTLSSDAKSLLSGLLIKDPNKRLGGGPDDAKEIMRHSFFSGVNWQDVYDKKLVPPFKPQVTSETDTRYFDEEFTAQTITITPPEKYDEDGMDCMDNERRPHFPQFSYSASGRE

With `CC(C)NC[C@@H](C(=O)N1C2CCC1CN(c1ncnc3[nH]c(=O)c(=O)n(C)c13)C2)c1ccc(Cl)cc1` [Example 36, 4-(8-((S)-2-(4-chlorophenyl)-3-(isopropylamino)propionyl)-3,8-diazabicyclo[3.2.1]octan-3-yl)-5-methyl-5,8-dihydropteridine-6,7-dione], the IC50 worked out at 77 nM in assay [1], 800 nM in assay [2] and 22 nM in assay [3].

As to `CC(C)NCC(C(=O)N1CCN(c2ncnc3c2[C@H](C)CC(=O)N3)C[C@@H]1C)c1ccc(Cl)cc1` (stereo in doubt) [Example 9, (R)-4-((S)-4-((R)-2-(4-chlorophenyl)-3-(isopropylamino)propionyl)-3-methylpiperazin-1-yl)-5-methyl-5,8-dihydropyrido[2,3-d]pyrimidin-7(6H)-one], the results for the IC50 in assay [1], in assay [2] and in assay [3] were 167 nM, 206 nM and 3.3 nM, respectively.

With `CC(C)NC[C@@H](C(=O)N1C2CCC1CN(c1ncnc3c1[C@H]1C[C@H]1C(=O)N3)C2)c1ccc(Cl)cc1` (single isomer, unassigned) [Example 39 Isomer 2], the IC50 in assay [1] came out at 151 nM; in assay [2] it was 756 nM; in assay [3], 43 nM.

In the case of `C[C@@H]1CC(=O)Nc2ncnc(N3CCN(C(=O)C4(c5ccc(Cl)cc5)CCNCC4)CC3)c21` [Example 18, (R)-4-(4-(4-(4-chlorophenyl)piperidin-4-carbonyl)piperazin-1-yl)-5-methyl-5,8-dihydropyrido[2,3-d]pyrimidin-7(6H)-one formate], the IC50 in assay [1] was determined as 590 nM; in assay [2], 256 nM; in assay [3], 20.1 nM.

These data come from US12617784B2, “AKT inhibitor” (Nanjing Chia Tai Tianqing Pharmaceutical Co., Ltd., priority 2019, dated 2026).
